In US8361964B2, “Growth hormone releasing factor (GRF) analogs and uses thereof” (Theratechnologies Inc., priority 2011, dated 2013):
Where a SMILES comes first, the peptide text is derived from it.

Columns and labels:
Growth Hormone secretion [1] = assay: Growth Hormone secretion in female rats after subcutaneous GRF analog; type: in vivo; settings: female Sprague-Dawley rats; 10 μg/rat subcutaneous; plasma 0-60 minutes
Source text: (§1) Sprague-Dawley rats (female, weighting from 250 to 300 g) were obtained from Charles River Inc. Animals were used according to a protocol of the Animal Care Committee along with the principles of the Guide for the Care and Use of Experimental Animals of the Canadian Council on Animal Care. The animals were maintained on standard laboratory chow under a 12:12 light:dark cycle. They were kept in groups of 4 rats per cage.
The animals were anesthetized with isoflurane 2.5%. A mid-section opening was made in the neck to expose the carotid artery. The carotid artery was canulated with polypropylene tubing (PE-50) to allow blood withdrawal. After surgical preparation, rats received a subcutaneous injection of GRF analog (10 μg/rat dissolved in 20 mM AcONa+5% mannitol at pH 5). For pharmacodynamics studies, blood samples (400 μL) were collected from 4 to 8 animals per group per time point. Blood samples (400 μl) were collected via the carotid catheter at 0, 10, 20, 30, 45 and 60 minutes after drug injection. Blood was placed into microtainer pre-treated with K3EDTA and immediately centrifuged at 13,000 RPM in a desktop centrifuge for 2 minutes. The plasma was collected and placed into a screw cap Eppendorf™ and quick frozen in liquid nitrogen. The samples were then kept at −80° C. until assayed. Determination of GH levels was performed as described below.
(§2) Rat and mouse plasma samples were vortexed carefully and centrifuged at 9,000 RPM for 2 min at 4° C. The dosage of GH levels was performed using the Rat/Mouse Growth Hormone ELISA kit from Millipore (Cat. # EZRMGH-45K). Sample supernatants were first diluted 20-fold with the GH ELISA assay buffer, and 10 μl of this dilution was added to the ELISA plate with 90 μl of GH EIA assay buffer. The remaining of the procedure was performed according to the manufacturer's instructions, and the data obtained were analyzed using GraphPad Prism™ software.
(§3) The GRF analogs described herein were tested for their ability to induce GH release in female mice and rats. […] The data are presented in Tables III (mice) and IV-V (rats).

Growth Hormone secretion [2] = assay: Growth Hormone secretion in female mice after subcutaneous GRF analog; type: in vivo; settings: female CD-1 mice; 10 μg/mouse subcutaneous; plasma 10 minutes after injection
Source text: as §1, with “CD-1 mice” for “Sprague-Dawley rats”, “20” for “250”, “25” for “300”, “mice” for “rats”
At the day of the experiment, mice received a subcutaneous injection of GRF analog (10 μg/mouse dissolved in 20 mM sodium acetate (AcONa)+5% mannitol at pH 5). 10 minutes after injection, the mice were anesthezied with isolufrane. Blood samples (500 μl) were obtained by intra-cardiac puncture. Blood was placed into microtainer pre-treated with K3EDTA and immediately centrifuged at 13,000 RPM in a desktop centrifuge for 2 minutes. The plasma was collected and placed into a screwcap Eppendorf™ tube and quick frozen in liquid nitrogen. The samples were then kept at −80° C. until assayed. Determination of GH levels was performed as described below.
as §2, §3

Compound	Mean AUC (GH Area Under the curve, GH concentration over time) (Growth Hormone secretion [1])	Mean Cmax (ng/ml) of Growth Hormone secretion (Growth Hormone secretion [1]) [ng/mL]	GH levels 10 min (Growth Hormone secretion [2]) [ng/mL]
CC[C@H](C)[C@H](NC(=O)[C@H](C)NC(=O)[C@H](CC(=O)O)NC(=O)[C@@H](C)NC(=O)[C@@H](N)Cc1ccc(O)cc1)C(=O)N[C@@H](Cc1ccccc1)C(=O)N[C@H](C(=O)N[C@@H](CC(=O)O)C(=O)N[C@@H](CO)C(=O)N[C@@H](Cc1ccc(O)cc1)C(=O)N[C@@H](CCCNC(=N)N)C(=O)N[C@@H](CCCCN)C(=O)N[C@H](C(=O)N[C@@H](CC(C)C)C(=O)N[C@@H](C)C(=O)N[C@@H](CCC(N)=O)C(=O)N[C@@H](CC(C)C)C(=O)N[C@@H](CCCCN)C(=O)N[C@@H](C)C(=O)N[C@@H](CCCNC(=N)N)C(=O)N[C@@H](CCC(N)=O)C(=O)N[C@@H](CC(=O)O)C(=O)N[C@H](C(=O)N[C@@H](CC(C)C)C(=O)N[C@@H](CO)C(=O)N[C@H](CCCNC(=N)N)C(N)=O)[C@@H](C)CC)C(C)C)[C@@H](C)O [SEQ ID NO: 21, Y-a-DAIFTDSYRKVLAQLKARQDILS-r-NH2] (HELM PEPTIDE1{Y.[dA].D.A.I.F.T.D.S.Y.R.K.V.L.A.Q.L.K.A.R.Q.D.I.L.S.[dR].[am]}$$$$V2.0)	3130	135.9	104.4
CC/C=C/CC(=O)N[C@@H](Cc1ccc(O)cc1)C(=O)N[C@@H](C)C(=O)N[C@@H](CC(=O)O)C(=O)N[C@@H](C)C(=O)N[C@H](C(=O)N[C@@H](Cc1ccccc1)C(=O)N[C@H](C(=O)N[C@@H](CC(=O)O)C(=O)N[C@@H](CO)C(=O)N[C@@H](Cc1ccc(O)cc1)C(=O)N[C@@H](CCCNC(=N)N)C(=O)N[C@@H](CCCCN)C(=O)N[C@H](C(=O)N[C@@H](CC(C)C)C(=O)N[C@@H](C)C(=O)N[C@@H](CCC(N)=O)C(=O)N[C@@H](CC(C)C)C(=O)N[C@@H](CO)C(=O)N[C@@H](C)C(=O)N[C@@H](CCCNC(=N)N)C(=O)N[C@@H](CCC(N)=O)C(=O)N[C@@H](CC(=O)O)C(=O)N[C@H](C(=O)N[C@@H](CCSC)C(=O)N[C@@H](CO)C(=O)N[C@@H](CCCNC(=N)N)C(N)=O)[C@@H](C)CC)C(C)C)[C@@H](C)O)[C@@H](C)CC [SEQ ID NO: 44, Trans-3-hexenoyl-YADAIFTDSYRKVLAQLSARQDIMSR-NH2] (HELM PEPTIDE1{[CC/C=C/CC(=O)[*:2]].Y.A.D.A.I.F.T.D.S.Y.R.K.V.L.A.Q.L.S.A.R.Q.D.I.M.S.R.[am]}$$$$V2.0)	984	44.2	15.2
CC/C=C/CC(=O)N[C@@H](Cc1ccc(O)cc1)C(=O)N[C@@H](C)C(=O)N[C@@H](CC(=O)O)C(=O)N[C@@H](C)C(=O)N[C@H](C(=O)N[C@@H](Cc1ccccc1)C(=O)N[C@H](C(=O)N[C@@H](CC(=O)O)C(=O)N[C@@H](CO)C(=O)N[C@@H](Cc1ccc(O)cc1)C(=O)N[C@@H](CCCNC(=N)N)C(=O)N[C@@H](CCCCN)C(=O)N[C@H](C(=O)N[C@@H](CC(C)C)C(=O)N[C@@H](C)C(=O)N[C@@H](CCC(N)=O)C(=O)N[C@@H](CC(C)C)C(=O)N[C@@H](CO)C(=O)N[C@@H](C)C(=O)N[C@@H](CCCNC(=N)N)C(=O)N[C@@H](CCC(N)=O)C(=O)N[C@@H](CC(=O)O)C(=O)N[C@H](C(=O)N[C@@H](CC(C)C)C(=O)N[C@@H](C)C(=O)N[C@@H](CCCNC(=N)N)C(N)=O)[C@@H](C)CC)C(C)C)[C@@H](C)O)[C@@H](C)CC [SEQ ID NO: 45, Trans-3-hexenoyl-YADAIFTDSYRKVLAQLSARQDILAR-NH2] (HELM PEPTIDE1{[CC/C=C/CC(=O)[*:2]].Y.A.D.A.I.F.T.D.S.Y.R.K.V.L.A.Q.L.S.A.R.Q.D.I.L.A.R.[am]}$$$$V2.0)	1953	78.8	102.1
CC/C=C/CC(=O)N[C@@H](Cc1ccc(O)cc1)C(=O)N[C@@H](C)C(=O)N[C@@H](CC(=O)O)C(=O)N[C@@H](C)C(=O)N[C@H](C(=O)N[C@@H](Cc1ccccc1)C(=O)N[C@H](C(=O)N[C@@H](CC(=O)O)C(=O)N[C@@H](CO)C(=O)N[C@@H](Cc1ccc(O)cc1)C(=O)N[C@@H](CCCNC(=N)N)C(=O)N[C@@H](CCCCN)C(=O)N[C@H](C(=O)N[C@@H](CC(C)C)C(=O)N[C@@H](C)C(=O)N[C@@H](CCC(N)=O)C(=O)N[C@@H](CC(C)C)C(=O)N[C@@H](CCCCN)C(=O)N[C@@H](C)C(=O)N[C@@H](CCCNC(=N)N)C(=O)N[C@@H](CCC(N)=O)C(=O)N[C@@H](CC(=O)O)C(=O)N[C@H](C(=O)N[C@@H](CC(C)C)C(=O)N[C@@H](C)C(=O)N[C@@H](CCCNC(=N)N)C(N)=O)[C@@H](C)CC)C(C)C)[C@@H](C)O)[C@@H](C)CC [SEQ ID NO: 20, Trans-3-hexenoyl-YADAIFTDSYRKVLAQLKARQDILAR-NH2] (HELM PEPTIDE1{[CC/C=C/CC(=O)[*:2]].Y.A.D.A.I.F.T.D.S.Y.R.K.V.L.A.Q.L.K.A.R.Q.D.I.L.A.R.[am]}$$$$V2.0)	966	31.7	307.7
CC/C=C/CC(=O)N[C@@H](Cc1ccc(O)cc1)C(=O)N[C@@H](C)C(=O)N[C@@H](CC(=O)O)C(=O)N[C@@H](C)C(=O)N[C@H](C(=O)N[C@@H](Cc1ccccc1)C(=O)N[C@H](C(=O)N[C@@H](CC(=O)O)C(=O)N[C@@H](CO)C(=O)N[C@@H](Cc1ccc(O)cc1)C(=O)N[C@@H](CCCNC(=N)N)C(=O)N[C@@H](CCCCN)C(=O)N[C@H](C(=O)N[C@@H](CC(C)C)C(=O)N[C@@H](C)C(=O)N[C@@H](CCC(N)=O)C(=O)N[C@@H](CC(C)C)C(=O)N[C@@H](CCCCN)C(=O)N[C@@H](C)C(=O)N[C@@H](CCCNC(=N)N)C(=O)N[C@@H](CCC(N)=O)C(=O)N[C@@H](CC(=O)O)C(=O)N[C@H](C(=O)N[C@@H](CC(C)C)C(=O)N[C@@H](C)C(=O)N[C@@H](CCCNC(=N)N)C(=O)N[C@@H](C)C(=O)N[C@@H](C)C(=O)N[C@@H](CCCNC(=N)N)C(=O)N[C@@H](C)C(=O)N[C@@H](C)C(=O)N[C@@H](CCCNC(=N)N)C(N)=O)[C@@H](C)CC)C(C)C)[C@@H](C)O)[C@@H](C)CC [SEQ ID NO: 31, Trans-3-hexenoyl-YADAIFTDSYRKVLAQLKARQDILARAARAAR-NH2] (HELM PEPTIDE1{[CC/C=C/CC(=O)[*:2]].Y.A.D.A.I.F.T.D.S.Y.R.K.V.L.A.Q.L.K.A.R.Q.D.I.L.A.R.A.A.R.A.A.R.[am]}$$$$V2.0)	9093	459.9	563.6
CC[C@H](C)[C@H](NC(=O)[C@H](C)NC(=O)[C@H](CC(=O)O)NC(=O)[C@@H](C)NC(=O)[C@@H](N)Cc1ccc(O)cc1)C(=O)N[C@@H](Cc1ccccc1)C(=O)N[C@H](C(=O)N[C@@H](CC(=O)O)C(=O)N[C@@H](CO)C(=O)N[C@@H](Cc1ccc(O)cc1)C(=O)N[C@@H](CCCNC(=N)N)C(=O)N[C@@H](CCCCN)C(=O)N[C@H](C(=O)N[C@@H](CC(C)C)C(=O)N[C@@H](C)C(=O)N[C@@H](CCC(N)=O)C(=O)N[C@@H](CC(C)C)C(=O)N[C@@H](CCCCN)C(=O)N[C@@H](CC(C)C)C(=O)N[C@@H](CCCNC(=N)N)C(=O)N[C@@H](CCC(N)=O)C(=O)N[C@@H](CC(=O)O)C(=O)N[C@H](C(=O)N[C@@H](CC(C)C)C(=O)N[C@@H](C)C(=O)N[C@@H](CCCNC(=N)N)C(=O)N[C@@H](C)C(=O)N[C@@H](C)C(=O)N[C@@H](CCCNC(=N)N)C(=O)N[C@@H](C)C(=O)N[C@@H](C)C(=O)N[C@@H](CCCNC(=N)N)C(N)=O)[C@@H](C)CC)C(C)C)[C@@H](C)O [SEQ ID NO: 29, Y-a-DAIFTDSYRKVLAQLKLRQDILARAARAAR-NH2] (HELM PEPTIDE1{Y.[dA].D.A.I.F.T.D.S.Y.R.K.V.L.A.Q.L.K.L.R.Q.D.I.L.A.R.A.A.R.A.A.R.[am]}$$$$V2.0)	9442	466.7	457.7
